US9682976B2, “Protein kinase C inhibitors and uses thereof” (Rigel Pharmaceuticals, Inc., priority 2012, dated 2017)

System: PKC mediated IL-2 production
Experiment: IL-2 ELISA, human primary T cell, anti CD3+CD28+
Format: cell-based
Settings: human primary T cells stimulated with αCD3 and αCD28, 24 hours
Summary of the method: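 Human peripheral blood T cells, pre-expanded with αCD3/αCD28 and IL-2 and then washed free of IL-2, were pre-incubated with compound for 1 h at 37° C. They were then stimulated on plates coated with […] αCD3 and 5 μg/ml αCD28, or with 0.5 ng/ml PMA plus 0.1 uM ionomycin in the counter assay. IL-2 in supernatants was measured by ELISA after 24 h.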

SMILES: CC1(C)CC(Nc2nc(Nc3ccc(OC4COC4)c(C#N)c3)ncc2F)CC2CCCN21 (stereo not drawn) [Compound 63, 5-(5-Fluoro-4-(octahydro-5,5-dimethylindolizin-7-ylamino)pyrimidin-2-ylamino)-2-(oxetan-3-yloxy)benzonitrile]
- EC50 (Homo sapiens, T-cell, 24 h): 0.1 to 0.5 µM

SMILES: C[C@H](CO)Oc1cc(F)c(Nc2ncc(F)c(N[C@@H]3C[C@@H]4CCCN4C(C)(C)C3)n2)cc1-n1nnn(C)c1=O [Compound 99]
- EC50 (Homo sapiens, T-cell, 24 h): < 0.1 µM

SMILES: COc1ccc(Nc2ncc(F)c(N[C@@H]3C[C@@H]4CCCN4C(C)(C)C3)n2)cc1-n1nnn(C2COC2)c1=O [Compound 285, 1-(5-(4-((7R,8aS)-octahydro-5,5-dimethylindolizin-7-ylamino)-5-fluoropyrimidin-2-ylamino)-2-methoxyphenyl)-4-(oxetan-3-yl)-1H-tetrazol-5(4H)-one]
- EC50 (Homo sapiens, T-cell, 24 h): 0.1 to 0.5 µM

SMILES: Cn1nnn(-c2cc(Nc3ncc(F)c(N[C@H]4C[C@H]5CCCN5C(C)(C)C4)n3)c(F)cc2C2CC2)c1=O [Compound 18, 1-(5-(4-((7S,8aR)-Octahydro-5,5-dimethylindolizin-7ylamino)-5-fluoropyrimidin-2-ylamino)-2-cyclopropyl-4-fluorophenyl)-4-methyl-1H-tetrazol-5(4H)-one]
- EC50 (Homo sapiens, T-cell, 24 h): 0.5 to 1 µM

SMILES: Cc1cc(Nc2ncc(F)c(N[C@@H]3C[C@@H]4CCCN4C(C)(C)C3)n2)ccc1OCCO [Compound 134, 2-(4-((4-(((7R,8aS)-5,5-dimethyloctahydroindolizin-7-yl)amino)-5-fluoropyrimidin-2-yl)amino)-2-(methyl)phenoxy)ethan-1-ol]
- EC50 (Homo sapiens, T-cell, 24 h): 0.1 to 0.5 µM

SMILES: Cn1nnn(-c2cc(Nc3ncc(F)c(N[C@@H]4CCN5C(CCC5(C)C)C4)n3)c(F)cc2C2CC2)c1=O (mixture of isomers) [Compound 25]
- EC50: 1 to 10 µM

SMILES: CC1(C)Oc2ccc(Nc3ncc(F)c(N[C@@H]4C[C@@H]5CCCN5C(C)(C)C4)n3)cc2-n2c1nn(C(CO)CCl)c2=O (stereo partly drawn) [Compound 250, 5-fluoro-N2-(1H-2,4-dihydron-4,4-dimethyl-2-(3-chloropropanol-2-yl)[1,2,4]triazolo[3,4-c][1,4]benzoxazin-1-one-8-yl)-N4-((7R,8aS)-octahydro-5,5-dimethylindolizin-7-yl)pyrimidine-2,4-diamine]
- EC50 (Homo sapiens, T-cell, 24 h): 1 to 10 µM

SMILES: CC1(C)C[C@H](Nc2nc(Nc3ccc(OCCO)c(-n4cnnn4)c3)ncc2Cl)C[C@@H]2CCCN21 [Compound 223, 2-(4-((5-chloro-4-(((7R,8aS)-5,5-dimethyloctahydroindolizin-7-yl)amino)pyrimidin-2-yl)amino)-2-(1H-tetrazol-1-yl)phenoxy)ethan-1-ol]
- EC50 (Homo sapiens, T-cell, 24 h): < 0.1 µM

SMILES: CC1(C)Oc2ccc(Nc3ncc(F)c(N[C@@H]4C[C@@H]5CCCN5C(C)(C)C4)n3)cc2O1 [Compound 157, N2-(2,2-dimethylbenzo[d][1,3]dioxol-5-yl)-N4-((7R,8aS)-5,5-dimethyloctahydroindolizin-7-yl)-5-fluoropyrimidine-2,4-diamine]
- EC50 (Homo sapiens, T-cell, 24 h): 1 to 10 µM

SMILES: Cn1nc2n(c1=O)-c1cc(Nc3ncc(F)c(N[C@@H]4C[C@@H]5CCCN5C(C)(C)C4)n3)ccc1OCC2(C)O (single isomer, unassigned) [Compound 294]
- EC50: 0.5 to 1 µM

SMILES: CC1(C)C[C@H](Nc2nc(Nc3ccc(N4CCOCC4)c(C#N)c3)ncc2F)C[C@@H]2CCCN21 [Compound 106, 5-((4-(((7R,8aS)-5,5-dimethyloctahydroindolizin-7-yl)amino)-5-fluoropyrimidin-2-yl)amino)-2-morpholinobenzonitrile]
- EC50 (Homo sapiens, T-cell, 24 h): 0.1 to 0.5 µM

SMILES: CC1(C)C[C@H](Nc2nc(Nc3ccc(OC4CCNCC4)c(OC(F)F)c3)ncc2F)C[C@@H]2CCCN21 [Compound 128, N^2-(3-(difluoromethoxy)-4-(piperidin-4-yloxy)phenyl)-N^4-((7R,8aS)-5,5-dimethyloctahydroindolizin-7-yl)-5-fluoropyrimidine-2,4-diamine]
- EC50 (Homo sapiens, T-cell, 24 h): 0.1 to 0.5 µM

SMILES: CC1(C)C[C@H](Nc2nc(Nc3ccc(OC4CCNCC4O)c(Cl)c3)ncc2F)C[C@@H]2CCCN21 (stereo partly drawn) [Compound 124]
- EC50 (Homo sapiens, T-cell, 24 h): 0.1 to 0.5 µM

SMILES: CC(O)COc1cc(F)c(Nc2ncc(F)c(N[C@@H]3C[C@@H]4CCCN4C(C)(C)C3)n2)cc1-n1nnn(C)c1=O (stereo partly drawn) [Compound 200, 1-(5-((4-(((7R,8aS)-5,5-dimethyloctahydroindolizin-7-yl)amino)-5-fluoropyrimidin-2-yl)amino)-4-fluoro-2-(2-hydroxypropoxy)phenyl)-4-methyl-1,4-dihydro-5H-tetrazol-5-one]
- EC50 (T-cell): < 0.1 µM

SMILES: Cn1nnn(-c2cc(Nc3ncc(F)c(NC4CCN5CCCC5C4)n3)c(F)cc2C2CC2)c1=O (racemic) [Compound 27, (±)-1-(5-(5-fluoro-4-(octahydroindolizin-7-ylamino)pyrimidin-2-ylamino)-2-cyclopropyl-4-fluorophenyl)-4-methyl-1H-tetrazol-5(4H)one]
- EC50 (Homo sapiens, T-cell, 24 h): 1 to 10 µM

SMILES: COCCOc1ccc(Nc2ncc(F)c(N[C@@H]3C[C@@H]4CCCN4C(C)(C)C3)n2)cc1C#N [Compound 172, 5-((4-(((7R,8aS)-5,5-dimethyloctahydroindolizin-7-yl)amino)-5-fluoropyrimidin-2-yl)amino)-2-(2-methoxyethoxy)benzonitrile]
- EC50 (Homo sapiens, T-cell, 24 h): 0.1 to 0.5 µM

SMILES: COc1cc(Nc2ncc(F)c(N[C@@H]3C[C@@H]4CCCN4C(C)(C)C3)n2)cc(OC)c1 [Compound 161, N2-(3,5-dimethoxyphenyl)-N4-((7R,8aS)-5,5-dimethyloctahydroindolizin-7-yl)-5-fluoropyrimidine-2,4-diamine]
- EC50 (Homo sapiens, T-cell, 24 h): 0.5 to 1 µM

SMILES: Cn1nnn(-c2cc(Nc3ncc(F)c(N[C@@H]4C[C@@H]5CCCN5C(C)(C)C4)n3)c(F)cc2OCC(O)C(F)(F)F)c1=O (stereo partly drawn) [Compound 230, 1-(5-((4-(((7R,8aS)-5,5-dimethyloctahydroindolizin-7-yl)amino)-5-fluoropyrimidin-2-yl)amino)-4-fluoro-2-(3,3,3-trifluoro-2-hydroxypropoxy)phenyl)-4-methyl-1,4-dihydro-5H-tetrazol-5-one]
- EC50 (Homo sapiens, T-cell, 24 h): 0.1 to 0.5 µM

SMILES: CC1(C)C[C@H](Nc2nc(Nc3ccc(N4CCC5(CC4)COC5)c(C#N)c3)ncc2F)C[C@@H]2CCCN21 [Compound 100, 5-(4-((7R,8aS)-5,5-dimethyloctahydroindolizin-7-ylamino)-5-fluoropyrimidin-2-ylamino)-2-(2-oxa-7-azaspiro[3.5]nonan-7-yl)benzonitrile]
- EC50 (Homo sapiens, T-cell, 24 h): 0.1 to 0.5 µM

SMILES: CC1(C)C[C@H](Nc2nc(Nc3ccc(O[C@H]4CCNC[C@@H]4F)c(C(F)(F)F)c3)ncc2F)C[C@@H]2CCCN21 [Compound 121]
- EC50 (Homo sapiens, T-cell, 24 h): < 0.1 µM

SMILES: CC1(C)C[C@H](Nc2nc(Nc3ccc4c(c3)-n3nnnc3C(CO)(CO)O4)ncc2F)C[C@@H]2CCCN21 [Compound 125, (8-((4-(((7R,8aS)-5,5-dimethyloctahydroindolizin-7-yl)amino)-5-fluoropyrimidin-2-yl)amino)-4H-benzo[b]tetrazolo[1,5-d][1,4]oxazine-4,4-diyl)dimethanol]
- EC50 (Homo sapiens, T-cell, 24 h): 1 to 10 µM

SMILES: Cn1nnn(-c2cc(Nc3ncc(Cl)c(N[C@@H]4C[C@@H]5CCCN5C(C)(C)C4)n3)c(F)cc2O)c1=O [Compound 232, 1-(5-((5-chloro-4-(((7R,8aS)-5,5-dimethyloctahydroindolizin-7-yl)amino)pyrimidin-2-yl)amino)-4-fluoro-2-hydroxyphenyl)-4-methyl-1,4-dihydro-5H-tetrazol-5-one]
- EC50 (Homo sapiens, T-cell, 24 h): 0.5 to 1 µM

SMILES: CC1(C)Oc2ccc(Nc3ncc(F)c(N[C@H]4C[C@H]5CCCN5C(C)(C)C4)n3)cc2-n2nnnc21 [Compound 1, N2-(4,4-dimethyl-4H-benzo[b]tetrazolo[1,5-d][1,4]oxazin-8-yl)-5-fluoro-N4-(octahydro-5,5-dimethylindolizin-7-amine)pyrimidine-2,4-diamine]
- EC50: 0.1 to 0.5 µM

SMILES: CC1(C)Oc2c(F)cc(Nc3ncc(F)c(NC4CC5CCCN5C(C)(C)C4)n3)cc2-n2nnnc21 (stereo not drawn) [Compound 5]
- EC50: 0.1 to 0.5 µM

SMILES: CC1(C)C[C@@H](Nc2nc(Nc3cc(-n4cnnn4)c(C4CC4)cc3F)ncc2F)C[C@@H]2CC(F)(F)CN21 [Compound 43, N^2-(4-cyclopropyl-2-fluoro-5-(1H-tetrazol-1-yl)phenyl)-5-fluoro-N^4-((7S,8aR)-2,2-difluoro-octahydro-5,5-dimethylindolizin-7-yl)pyrimidine-2,4-diamine]
- EC50 (Homo sapiens, T-cell, 24 h): 1 to 10 µM

SMILES: Cn1nnn(-c2cc(Nc3ncc(F)c(NC4CC5CCCN5C(C)(C)C4)n3)ccc2OC2COC2)c1=O (single isomer, unassigned) [Compound 39, 1-(5-(5-fluoro-4-(octahydro-5,5-dimethylindolizin-7-ylamino)pyrimidin-2-ylamino)-2-(oxetan-3-yloxy)phenyl)-4-methyl-1H-tetrazol-5(4H)-one]
- EC50 (Homo sapiens, T-cell, 24 h): 0.1 to 0.5 µM

SMILES: COc1cc(Nc2ncc(Cl)c(N[C@@H]3C[C@@H]4CCCN4C(C)(C)C3)n2)cc(-n2nnnc2C)c1 [Compound 152, 5-chloro-N4-((7R,8aS)-5,5-dimethyloctahydroindolizin-7-yl)-N2-(3-methoxy-5-(5-methyl-1H-tetrazol-1-yl)phenyl)pyrimidine-2,4-diamine]
- EC50 (Homo sapiens, T-cell, 24 h): < 0.1 µM

SMILES: Cn1nnn(-c2cc(Nc3ncc(F)c(N[C@@H]4C[C@@H]5CCCN5C(C)(C)C4)n3)c(F)cc2O[C@H]2CCOC2)c1=O [Compound 110, 1-(5-((4-(((7R,8aS)-5,5-dimethyloctahydroindolizin-7-yl)amino)-5-fluoropyrimidin-2-yl)amino)-4-fluoro-2-(((S)-tetrahydrofuran-3-yl)oxy)phenyl)-4-methyl-1,4-dihydro-5H-tetrazol-5-one]
- EC50 (Homo sapiens, T-cell, 24 h): 0.1 to 0.5 µM

SMILES: CC1(C)C[C@H](Nc2nc(Nc3ccc(OCC4CCOCC4)c(C#N)c3)ncc2F)C[C@@H]2CCCN21 [Compound 178, 5-(4-((7R,8aS)-5,5-dimethyloctahydroindolizin-7-ylamino)-5-fluoropyrimidin-2-ylamino)-2-((tetrahydro-2H-pyran-4-yl)methoxy)benzonitrile]
- EC50 (Homo sapiens, T-cell, 24 h): 0.1 to 0.5 µM

SMILES: CC1(C)C[C@H](Nc2nc(Nc3cccc(-n4nnnc4SC(CO)CO)c3)ncc2F)C[C@@H]2CCCN21 [Compound 263, 2-(1-(3-(4-((7R,8aS)-octahydro-5,5-dimethylindolizin-7-ylamino)-5-fluoropyrimidin-2-ylamino)phenyl)-1H-tetrazol-5-ylthio)propane-1,3-diol]
- EC50 (Homo sapiens, T-cell, 24 h): 0.1 to 0.5 µM
